Data: patent US20060241108A1, “Substituted phenoxazines and acridones as inhibitors of AKT” (St. Jude Children's Research Hospital, priority 2005, published 2006)

Experiments:
Rh1 cells = test: Cell growth inhibition, Rh1 cells; format: cell-based, human; details: complete medium, six days, nuclei counted
Method: Cell lines and growth conditions. The human cell lines Rh1, Rh18, and Rh30 (ATCC Deposit # CRL 2061) have been described, e.g., by Hazelton et al. Cancer Res 1987;47:4501-4507 and Hosoi et al. Cancer Res. 1999;59:886-894. Rh1, Rh18 and Rh30 cells can each be grown in antibiotic free RPMI-1640 medium (available from BioWhittaker, Walkersville, Md.), supplemented with 10% fetal bovine serum (available from HyClone Laboratories, Logan, Utah) and 2 mM L-glutamine (available from BioWhittaker, Walkersville, Md.) at 37° C. in an atmosphere of 5% CO2. For serum free experiments, cells can be cultured in modified N2E (MN2E) medium (DMEM/F-12, 1:1 mixture) (Sigma, St. Louis, Mo.) supplemented with 1 μg/ml human holo transferrin, 30 nM sodium selenite, 20 nM progesterone, 100 μM putrescine, 30 nM vitamin E phosphate, and 50 μM ethanolamine. […]
Cell growth inhibition. […] Growth can be assessed after lysing cells, and counting nuclei. […]
The effect(s) of compounds, including phenoxazine compounds such as those listed in Table I, above, on cell growth can be evaluated in cell-based assays such as the exemplary assays described here. Rh1, Rh18 and/or Rh30 cells grown in complete medium can be exposed to graded concentrations of test compound (e.g., from 0.1 to 25 μM) for six days, at which time the cells can be lysed and their growth assessed by counting nuclei. […]

AKT1ΔPH = molecular target: T1, AKT1ΔPH (Homo sapiens, UniProt P31749); test: In vitro kinase assay with recombinant AKT lacking the pleckstrin homology domain; format: biochemical; details: AKTΔPH versus full-length AKT
T1 construct: purchased Upstate Biotechnology
T1 sequence (P31749 118-480 limits assumed, stated change not applied): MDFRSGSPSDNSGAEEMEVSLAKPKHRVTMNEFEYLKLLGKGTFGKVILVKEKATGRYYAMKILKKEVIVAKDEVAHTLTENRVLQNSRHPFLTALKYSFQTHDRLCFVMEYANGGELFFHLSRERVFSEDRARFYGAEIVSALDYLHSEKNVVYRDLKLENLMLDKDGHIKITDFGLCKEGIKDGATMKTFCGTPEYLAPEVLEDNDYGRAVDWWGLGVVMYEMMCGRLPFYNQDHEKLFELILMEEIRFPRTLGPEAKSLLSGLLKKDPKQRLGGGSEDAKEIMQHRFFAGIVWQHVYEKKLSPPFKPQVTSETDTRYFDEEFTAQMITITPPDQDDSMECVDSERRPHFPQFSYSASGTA
Method: In vitro inhibition of recombinant AKT. In vitro kinase assays can be performed using an active, recombinant, full length AKT1/PKBα protein (available from Upstate Biotechnology, Lake Placid, N.Y.) or with an active, recombinant AKT1/PKBα protein, referred to herein as AKT1ΔPH, that lacks the pleckstrin homology domain (also available from Upstate Biotechnology). 10 ng of the recombinant enzyme in 25 μl 1× kinase buffer (25 mM Tris, pH 7.5; 5 mM β-glycerol phosphate; 2 mM dithiothreitol; 0.1 mM Na3VO4; and 10 mM MgCl2) is mixed with 2.5 μl of DMSO and a test compound (5 μM). Samples are incubated on ice for 1 hour, at which time 1 μg of GSK-3 fusion protein (Cell Signaling Technology, Beverly, Mass., catalog #9278) is added followed by ATP (200 μM) to each reaction mixture. After incubating the suspensions at 30° C. for 30 minutes, the reaction can be terminated by the addition of 3×SDS sample buffer (187.5 mM Tris-HCl, pH 6.8; 6% SDS; 30% glycerol; 150 mM dithiothreitol; and 0.03% bromophenol blue). The samples are then boiled for five minutes. The proteins can be separated on a 12% SDS polyacrylamide gel, and subsequently transferred to a nitrocellulose membrane. The membranes are preferably incubated with rabbit polyclonal anti-phospho-GSK-3α/β (Ser21/9) antibody (available from Cell Signaling Technology, Beverly, Mass., catalog # 9331). […]

Rh18 cells = test: Determination of apoptosis (Annexin V-FITC/propidium iodide flow cytometry), Rh18 cells; details: Rh18, 7.5 μM, four days, n = 3
Method: Determination of apoptosis. An ApoAlert™ Annexin V-FITC Apoptosis kit (available from Clontech, Palo Alto, Calif.) can be used to evaluate the extent of apoptosis within cell populations. Cells (Rh1: 350,000 per 75-cm^2 flask; Rh18: 800,000 per 75-cm^2 flask; or Rh30: 500,000 per 75-cm^2 flask) are preferably grown overnight in complete medium. On day 1, cells are treated with DMSO (0.1%; vehicle control) or with a test compound (e.g., a phenoxazine or acridone compound). After 4 days, the cells are trypsinized, washed with PBS, and resuspended in 200 μl of binding buffer. Cells are then incubated with 10 μl of annexin V-FITC (final concentration, 1 μg/ml) and 500 ng of propidium iodide in a final volume of 410 μl. Cells are preferably incubated at room temperature in the dark for ten minutes before flow cytometric analysis with an FACSCalibur™ Flow Cytometry System (Becton Dickinson, San Jose, Calif.).
For instance, Rh1, Rh18 and/or Rh30 cells can be grown in complete medium with 0.1% DMSO (as a negative control) or with one or more test compounds, e.g., any of the phenoxazine compounds listed in Table I, above, including but not limited to the compounds 10B, 11B, 13B, 14B or 15B. […] Cells are then harvested, and the extent of apoptosis evaluated, e.g., by an ApoAlert™ (Clontech, Palo Alto, Calif.) flow cytometric assay.

[1] = molecular target: T2, recombinant p-110 gamma enzyme (Homo sapiens, UniProt P48736); test: PI 3-kinase assay in vitro; format: biochemical; details: 5 μM; phosphatidylinositol substrate, [γ32P]-ATP, TLC
T2 construct: purchased AG Scientific, San Diego, Calif
T2 sequence (P48736 whole entry, species assumed): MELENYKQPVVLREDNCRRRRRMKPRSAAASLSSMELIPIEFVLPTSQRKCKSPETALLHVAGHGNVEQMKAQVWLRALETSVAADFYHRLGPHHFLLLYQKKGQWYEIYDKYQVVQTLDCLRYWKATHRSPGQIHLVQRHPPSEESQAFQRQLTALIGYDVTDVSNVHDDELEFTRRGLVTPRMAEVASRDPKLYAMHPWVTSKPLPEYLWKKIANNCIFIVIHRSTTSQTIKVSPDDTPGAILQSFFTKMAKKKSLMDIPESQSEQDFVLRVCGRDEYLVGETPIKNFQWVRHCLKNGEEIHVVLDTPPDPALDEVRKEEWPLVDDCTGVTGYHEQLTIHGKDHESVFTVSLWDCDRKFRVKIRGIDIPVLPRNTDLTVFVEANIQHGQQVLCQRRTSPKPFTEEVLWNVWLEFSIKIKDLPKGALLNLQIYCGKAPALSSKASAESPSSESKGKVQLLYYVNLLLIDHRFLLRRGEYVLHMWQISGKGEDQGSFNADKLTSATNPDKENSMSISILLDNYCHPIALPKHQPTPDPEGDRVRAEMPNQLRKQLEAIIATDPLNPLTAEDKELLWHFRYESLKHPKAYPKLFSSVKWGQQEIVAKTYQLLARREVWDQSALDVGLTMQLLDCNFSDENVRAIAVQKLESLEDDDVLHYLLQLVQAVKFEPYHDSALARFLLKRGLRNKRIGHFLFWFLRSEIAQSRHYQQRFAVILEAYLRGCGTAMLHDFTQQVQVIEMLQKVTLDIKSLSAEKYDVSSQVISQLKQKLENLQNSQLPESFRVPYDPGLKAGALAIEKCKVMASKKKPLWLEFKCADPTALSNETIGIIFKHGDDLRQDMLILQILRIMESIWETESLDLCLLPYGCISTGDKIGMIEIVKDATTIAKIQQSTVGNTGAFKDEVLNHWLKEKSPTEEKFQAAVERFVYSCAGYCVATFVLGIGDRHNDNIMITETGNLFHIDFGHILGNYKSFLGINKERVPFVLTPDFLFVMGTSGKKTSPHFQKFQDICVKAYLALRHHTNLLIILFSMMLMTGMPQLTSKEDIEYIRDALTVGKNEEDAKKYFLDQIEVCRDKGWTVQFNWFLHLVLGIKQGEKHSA
Method: PI 3-kinase assay. […] 10 μg of phosphatidylinositol (available from Sigma, St. Louis, Mo.) can then be added to each sample, and the incubation preferably continues on ice for an additional 15 minutes. ATP (final concentration 25 μM containing 30 μCi of [γ^32p]-ATP) can be added to each sample, and the reaction mixtures incubated at 37° C. for 10 minutes. Reactions can be terminated by adding 20 μl of 6 N hydrochloric acid. The sample is preferably vortexed, and lipids extracted into 300 μl of MeOH:CHCl3 (1:1) mixture. After mixing gently and spinning at 10,000×g for 5 minutes, 50 μl of the organic phase is preferably spotted onto a silica coated thin layer chromatography (TLC) plate (available from EMD, La Jolla, Calif.) and developed using a solvent system containing CHCl3:MeOH:H2O:NH4OH (60:47:11.3:2). The TLC plate can then be allowed to dry, and the bands analyzed using a Storm 860 phosphoimager (available from Amersham Biosciences, Sunnyvale, Calif.).
Lipids in such assays can be resolved by thin layer chromatography (TLC), and incorporated radiolabel quantitated using a phosphoimager.

Molecule | IC50 (Rh1 cells) | ability to inhibit AKT kinase activity after deletion of the PH domain (AKT1ΔPH) | Percentage of cells ± SD, Apoptotic (Rh18 cells) | Percentage of cells ± SD, Viable (Rh18 cells) | PI 3-kinase activity [1]
CCN(CC)CCCCN1c2ccccc2Oc2ccc(Cl)cc21 [Compound 10B, 10-[4′-(N-diethylamino)butyl]-2-chlorophenoxazine] | 2 µM | unaffected by deletion of the PH domain | 34.33 ± 6.13% | 65.00 ± 2.94% | comparable to the untreated sample
10-[4′-[(β-hydroxyethyl)piperazino]butyl]-2-chlorophenoxazine [Compound 15B] | 2 µM | unaffected by deletion of the PH domain | 32.70 ± 8.99% | – | comparable to the untreated sample
